Test results published in publication PMC6337391 (Molecules, 2019).

Columns and labels:
[1] = target: acetyl-cholinesterase (AChE) (Electrophorus electricus, UniProt O42275); type: biochemical
Protocol: We investigated, in vitro, the inhibitory activity of a, b, c, and e derivatives on acetylcholinesterase activity using acetylthiocholine as a substrate [29].
A modified procedure which was followed in our previous publication was performed [29]. A stock solution (10 mM) of the compounds diluted in DMSO was used (final concentration 100 µM).

[2] = target: T1, soybean lipoxygenase (Glycine max, UniProt P08170); experiment: biochemical; type: biochemical; conditions: soybean LOX
T1 sequence (P08170 1-839): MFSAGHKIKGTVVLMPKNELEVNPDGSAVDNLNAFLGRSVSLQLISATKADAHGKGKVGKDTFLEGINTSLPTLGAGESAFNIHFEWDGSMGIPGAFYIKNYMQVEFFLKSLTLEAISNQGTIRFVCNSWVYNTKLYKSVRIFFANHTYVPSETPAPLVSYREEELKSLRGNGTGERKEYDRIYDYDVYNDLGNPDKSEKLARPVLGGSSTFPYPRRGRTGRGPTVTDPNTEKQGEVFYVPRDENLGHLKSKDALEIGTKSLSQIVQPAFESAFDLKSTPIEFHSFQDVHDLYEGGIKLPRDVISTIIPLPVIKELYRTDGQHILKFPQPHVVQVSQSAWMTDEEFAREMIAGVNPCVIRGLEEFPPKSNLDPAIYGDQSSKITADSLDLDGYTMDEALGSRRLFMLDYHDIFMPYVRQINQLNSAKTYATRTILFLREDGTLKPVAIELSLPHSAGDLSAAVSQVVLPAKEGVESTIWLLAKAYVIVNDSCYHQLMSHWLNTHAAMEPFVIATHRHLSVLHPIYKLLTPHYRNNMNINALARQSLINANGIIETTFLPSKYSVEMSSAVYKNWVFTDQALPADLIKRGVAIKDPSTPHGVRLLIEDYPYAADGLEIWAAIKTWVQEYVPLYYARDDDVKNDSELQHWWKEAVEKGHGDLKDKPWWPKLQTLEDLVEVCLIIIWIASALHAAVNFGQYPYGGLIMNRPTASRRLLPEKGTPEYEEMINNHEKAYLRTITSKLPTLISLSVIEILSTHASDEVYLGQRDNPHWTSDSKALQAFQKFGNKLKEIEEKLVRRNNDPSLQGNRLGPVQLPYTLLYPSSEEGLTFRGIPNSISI
Outline: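 Soybean LOX (enzyme solution 1/9 × 10^−4 w/v in saline) incubated at room temperature with sodium linoleate ([…]) in tris buffer pH 9. Compounds added from DMSO stocks. IC50 derived from several concentrations.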

[3] = Reducing activity with the stable radical DPPH
Outline: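 DPPH (final 0.05 mM) in absolute ethanol mixed with an equal volume of compound at 0.05 or 0.1 mM, ethanol as control. Absorbance at 517 nm read at room temperature after 20 and 60 min, expressed as reducing activity RA%.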

[4] = system: L929 mouse fibroblasts cells; experiment: Cytotoxicity, propidium iodide fluorescence method; type: cell-based; conditions: 24-h incubation
Outline: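 L929 cells in EMEM with 10% horse serum were allowed to attach for 24 h, then exposed to 1, 10, 20, 50 and 100 μM compound for 24 h at 37 °C. Cells were detached, stained with propidium iodide, and cell death was measured by flow cytometry.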

[5] = Inhibition of linoleic acid lipid peroxidation (AAPH)
Outline: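 Sodium linoleate oxidation was initiated by AAPH in 0.05 M phosphate buffer, pH 7.4, at 37 °C, with test compound present and DMSO as blank. Conjugated diene hydroperoxide formation was followed as the absorbance increase at 234 nm.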

[6] = ABTS•+ decolorization assay
Outline: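 Compounds (10 mM DMSO stocks, diluted) added to ABTS•+ radical generated by potassium persulfate oxidation of ABTS. Decolorization followed as absorbance at room temperature, with Trolox as standard.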

[7] = Lipophilicity as RM values by RP-TLC; type: physicochemical; parameters: key: RM = log[(1/Rf) − 1]; conditions: methanol/water 70/30, SD < 10%
Outline: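 Reversed-phase TLC on silica gel plates impregnated with 5% (v/v) liquid paraffin, methanol/water 70/30 (v/v) mobile phase, saturated tanks at 24 °C, UV detection. RM = log[(1/Rf) − 1] from five Rf measurements.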

[8] = target: T2, human h-15-LOX-1 (Homo sapiens, UniProt P16050); experiment: Human h-15-LOX-1 screening UV assay; type: biochemical; conditions: read-out: h-15-LOX-1 Inhb. IC50
T2 sequence (P16050 1-662): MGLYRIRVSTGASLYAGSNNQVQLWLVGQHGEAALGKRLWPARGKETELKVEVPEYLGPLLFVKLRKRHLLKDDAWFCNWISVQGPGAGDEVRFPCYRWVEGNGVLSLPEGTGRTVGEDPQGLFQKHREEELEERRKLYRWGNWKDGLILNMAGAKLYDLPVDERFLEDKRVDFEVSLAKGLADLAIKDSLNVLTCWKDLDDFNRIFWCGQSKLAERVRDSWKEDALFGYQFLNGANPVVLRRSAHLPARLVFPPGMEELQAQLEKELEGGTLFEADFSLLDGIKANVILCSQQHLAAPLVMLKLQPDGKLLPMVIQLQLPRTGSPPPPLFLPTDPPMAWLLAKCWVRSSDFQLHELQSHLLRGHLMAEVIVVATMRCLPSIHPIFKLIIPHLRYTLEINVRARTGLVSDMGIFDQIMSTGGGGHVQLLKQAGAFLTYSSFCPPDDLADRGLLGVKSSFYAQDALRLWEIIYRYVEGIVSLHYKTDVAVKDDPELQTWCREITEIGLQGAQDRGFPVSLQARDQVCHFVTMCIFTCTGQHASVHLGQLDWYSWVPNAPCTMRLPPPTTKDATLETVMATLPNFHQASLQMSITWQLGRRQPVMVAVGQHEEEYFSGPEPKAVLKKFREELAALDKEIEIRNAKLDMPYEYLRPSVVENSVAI
Protocol: The residual enzyme activity was measured after 10 min pre-incubation with the tested compounds at room temperature. […] Compound c11 follows.
The assay buffer consists of HEPES titrated to pH 7.5 using a concentrated aqueous solution of NaOH. Linoleic acid (LA) was used as a substrate. The linear absorbance increase in absence of the inhibitor was set as 100%, whereas the absorbance increase in absence of the enzyme was set to 0%. All experiments were performed in triplicate and the average triplicate values and their standard deviations are plotted. The vertical axis describes the residual enzyme activity percent % of the human h-15-LOX-1, whereas the horizontal axis describes the concentration of 50 µM of the compounds. The half maximal inhibitor concentration (IC50) of the inhibitors for h-15-LOX-1 was determined using the same assay (Figure 6 and Figure 7).

Chain of acetyl-cholinesterase (AChE) (O42275 24-633): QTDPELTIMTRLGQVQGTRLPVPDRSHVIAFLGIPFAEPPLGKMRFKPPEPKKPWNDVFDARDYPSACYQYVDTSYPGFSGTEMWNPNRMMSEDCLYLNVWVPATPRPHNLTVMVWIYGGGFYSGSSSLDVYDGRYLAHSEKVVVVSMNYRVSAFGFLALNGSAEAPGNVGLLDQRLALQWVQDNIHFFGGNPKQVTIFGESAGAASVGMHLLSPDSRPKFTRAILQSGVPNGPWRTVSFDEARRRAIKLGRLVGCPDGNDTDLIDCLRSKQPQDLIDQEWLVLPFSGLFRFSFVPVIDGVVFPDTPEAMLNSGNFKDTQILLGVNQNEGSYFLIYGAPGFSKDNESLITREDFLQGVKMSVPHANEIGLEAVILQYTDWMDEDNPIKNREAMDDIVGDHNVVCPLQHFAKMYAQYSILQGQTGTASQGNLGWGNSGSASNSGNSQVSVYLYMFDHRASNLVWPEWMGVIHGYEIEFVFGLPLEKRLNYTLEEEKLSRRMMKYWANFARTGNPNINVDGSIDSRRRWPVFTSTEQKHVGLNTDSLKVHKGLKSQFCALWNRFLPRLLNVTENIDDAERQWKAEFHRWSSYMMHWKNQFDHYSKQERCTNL

SMILES | % AChE Inhb. @ 100 μM [1] | % LOX Inhb. @ 100 μM [2] | IC50 ([2]; read-out: LOX IC50) | RA% 100 μM 20 min [3] | RA% 100 μM 60 min [3] | 1 μM Average (% pi) ± σ [4] | 10 μM Average (% pi) ± σ [4] | 20 μM Average (% pi) ± σ [4] | 50 μM Average (% pi) ± σ [4] | 100 μM Average (% pi) ± σ [4] | AAPH% @ 100 μM (anti-lipid peroxidation) [5] | ABTS•+ Inhb. % @ 100 μM [6] | RM [7] | IC50 [8]
O=C(/C=C/c1c[nH]c2ccccc12)c1ccc(OCCCOc2ccc(C(=O)/C=C/c3c[nH]c4ccccc34)cc2)cc1 [c6, (2E,2′E)-1,1′-((propane-1,3-diylbis(oxy))bis(4,1-phenylene))bis(3-(1H-indol-3-yl)prop-2-en-1-one)] | did not present any activity and Νο | 98% | 54 µM | No | No | 1.12 ± 1.15% | 2.2 ± 1.66% | 1.16 ± 0.81% | 3.03 ± 0.02% | 3.03 ± 0.02% | 100% | No | −0.97 | 
c1ccc2c(c1)SCc1c-2[nH]c2ccccc12 [PD-146176, reference compound] |  |  |  |  |  |  |  |  |  |  |  |  |  | 16 µM
O=C(/C=C/C1=C2C=CC=CC2NC1)c1ccc(O)cc1 (centres unmarked) [a6, (E)-3-(2,7a-dihydro-1H-indol-3-yl)-1-(4-hydroxyphenyl) prop-2-en-1-one] | Νο | 60% |  | 15% | 2% | 1.71 ± 2.08% | 1.66 ± 0.59% | 3.25 ± 2.6% | 6.67 ± 1.35% | 6.67 ± 1.35% | 45% | No | −0.65 | 
